This passage reports IC50 results from publication PMC10503972, “Synthesis, predictions of drug-likeness, and pharmacokinetic properties of some chiral thioureas as potent enzyme inhibition agents” (Turkish Journal of Chemistry, 2021).

In one test the target is urease (Canavalia ensiformis, UniProt P07374). To be noted: read-out: Urease assay IC50; means ± S.E.M. of three parallel measurements.
The target in test [1] is acetylcholinesterase (AChE) from electric eel (Electrophorus electricus, UniProt O42275). To be noted: read-out: AChE assay IC50; means ± S.E.M. of three parallel measurements.
Protocol: (§1) Herein, acetylcholinesterase (AChE) from electric eel and butyrylcholinesterase (BChE) horse serum was used. The acetylthiocholine iodide and butyryl thiocholine chloride were utilized as substrates.
(§2) The bioactivity tests were carried out in triplicate at four different concentrations. Results are given as IC50 (μg/mL). The data were the mean ± S.E.M. (standard error of the meaning) of triplicate analyses of each concentration under the 95 % reliability (p < 0.05).
For the next test, the target named is tyrosinase. Nature of the test: Tyrosinase inhibitory activity. It is filed as biochemical. The following applies: means ± S.E.M. of three parallel measurements. The method, then:
The spectrophotometric analysis of tyrosinase inhibitory activities was performed according to the slightly modified literature procedures of Hearing.

Test [2] deals with butyrylcholinesterase (BChE) horse serum (Equus caballus, UniProt P81908). Nature of the test: Anticholinesterase inhibitory activity, BChE assay (Ellman's method). The following applies: read-out: BChE assay IC50; means ± S.E.M. of three parallel measurements. Background: DTNB colorimetry detects thiols as they appear.
Chain of butyrylcholinesterase (BChE) horse serum (P81908 whole entry): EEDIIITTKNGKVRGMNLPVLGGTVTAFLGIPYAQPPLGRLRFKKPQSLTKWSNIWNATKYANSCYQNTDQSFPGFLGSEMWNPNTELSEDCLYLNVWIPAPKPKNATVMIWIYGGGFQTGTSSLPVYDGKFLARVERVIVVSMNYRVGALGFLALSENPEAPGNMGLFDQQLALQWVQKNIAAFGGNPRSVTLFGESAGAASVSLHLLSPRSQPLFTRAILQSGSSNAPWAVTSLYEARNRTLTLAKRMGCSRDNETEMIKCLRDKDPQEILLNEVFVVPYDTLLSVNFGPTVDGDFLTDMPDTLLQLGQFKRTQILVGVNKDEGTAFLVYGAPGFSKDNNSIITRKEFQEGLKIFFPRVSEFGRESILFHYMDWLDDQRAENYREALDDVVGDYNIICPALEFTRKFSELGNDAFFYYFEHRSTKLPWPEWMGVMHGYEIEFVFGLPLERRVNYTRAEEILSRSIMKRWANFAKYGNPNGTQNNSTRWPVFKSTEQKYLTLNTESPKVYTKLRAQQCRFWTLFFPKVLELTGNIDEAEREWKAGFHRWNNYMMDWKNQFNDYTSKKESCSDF
Protocol: as §1, §2

Chain of acetylcholinesterase (AChE) from electric eel (O42275 24-633): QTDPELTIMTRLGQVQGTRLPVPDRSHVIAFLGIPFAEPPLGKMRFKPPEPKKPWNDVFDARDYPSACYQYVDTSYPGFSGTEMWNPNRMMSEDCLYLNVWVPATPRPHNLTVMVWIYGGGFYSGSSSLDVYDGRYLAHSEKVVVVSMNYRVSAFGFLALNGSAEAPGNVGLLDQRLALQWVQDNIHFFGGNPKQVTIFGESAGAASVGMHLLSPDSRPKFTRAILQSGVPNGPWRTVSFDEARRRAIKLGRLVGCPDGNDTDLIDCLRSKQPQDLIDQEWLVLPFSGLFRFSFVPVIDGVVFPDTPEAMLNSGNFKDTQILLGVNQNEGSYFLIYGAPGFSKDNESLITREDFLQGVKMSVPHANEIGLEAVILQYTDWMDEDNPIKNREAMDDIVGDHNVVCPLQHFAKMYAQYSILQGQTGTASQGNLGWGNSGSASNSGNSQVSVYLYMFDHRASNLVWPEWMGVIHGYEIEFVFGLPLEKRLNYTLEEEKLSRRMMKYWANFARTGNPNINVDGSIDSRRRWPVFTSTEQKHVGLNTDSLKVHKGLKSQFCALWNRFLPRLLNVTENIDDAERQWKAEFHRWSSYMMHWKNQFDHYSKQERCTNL
Chain of urease (P07374 whole entry, looked up): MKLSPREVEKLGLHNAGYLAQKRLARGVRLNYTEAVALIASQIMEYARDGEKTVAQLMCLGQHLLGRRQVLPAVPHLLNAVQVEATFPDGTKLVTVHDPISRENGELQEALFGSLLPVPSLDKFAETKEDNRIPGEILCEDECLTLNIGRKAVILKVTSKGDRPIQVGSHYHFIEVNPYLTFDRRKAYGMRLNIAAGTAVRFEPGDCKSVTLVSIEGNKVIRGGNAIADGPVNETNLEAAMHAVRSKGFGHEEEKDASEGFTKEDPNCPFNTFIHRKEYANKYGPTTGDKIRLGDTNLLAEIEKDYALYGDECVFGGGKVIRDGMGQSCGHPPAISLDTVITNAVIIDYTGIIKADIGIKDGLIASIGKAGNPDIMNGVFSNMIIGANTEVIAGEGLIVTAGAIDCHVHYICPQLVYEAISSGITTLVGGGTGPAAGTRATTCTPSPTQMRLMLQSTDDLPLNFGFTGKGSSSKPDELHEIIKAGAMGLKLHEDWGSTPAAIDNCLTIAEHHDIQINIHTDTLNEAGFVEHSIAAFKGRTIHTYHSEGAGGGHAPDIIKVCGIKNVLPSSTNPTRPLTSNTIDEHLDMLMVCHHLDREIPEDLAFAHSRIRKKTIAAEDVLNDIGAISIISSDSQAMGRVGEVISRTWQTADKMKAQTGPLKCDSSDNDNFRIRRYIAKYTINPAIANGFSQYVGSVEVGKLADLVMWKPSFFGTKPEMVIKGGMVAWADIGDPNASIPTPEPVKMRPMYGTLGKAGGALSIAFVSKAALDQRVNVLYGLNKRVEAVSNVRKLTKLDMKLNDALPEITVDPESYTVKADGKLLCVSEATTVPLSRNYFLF
Protocol for urease: Solutions of chiral thioureas (1 – 17) were prepared at four different concentrations, i.e., 400, 200, 100, and 50 μM for urease inhibitory assay in EtOH. Additionally, EtOH was used as a control, while thiourea was used as urease standards. […] The spectrophotometric analysis of urease inhibitory activity was performed according to the literature procedures by measuring ammonia production using the indophenol method as described earlier [37].
as §2

For orientation: IC50 means the point on the concentration scale where inhibition reaches its midpoint. Take `NC(N)=S` [Thiourea]: the IC50 at urease is 24.2 ± 0.3 µM.

With “N-(3,4,5-trimethoxyphenyl)-N′-(2-mercapto-carboxyethanyl)thiourea [Compound 14]”, the IC50 in test [1] was determined as 4.8 ± 0.9 µM; against tyrosinase, 1100 ± 100 µM; in test [2] it was 29.5 ± 1.1 µM.

For the compound “N-(2-chloro-5-(trifluoromethyl)phenyl)-N′-(2-mercapto-carboxyethanyl)thiourea [Compound 9]”, the IC50 against tyrosinase came to 15700 ± 500 µM; in test [2], 80 ± 0.6 µM.

For “N-(4-methoxyphenyl)-N′-(2-mercapto-carboxyethanyl)thiourea [Compound 6]”, the IC50 came out at 8.1 ± 0.9 µM in test [1], 1900 ± 500 µM at tyrosinase and 58.2 ± 0.1 µM in test [2].

Turning to “N-(2,4-dimethoxyphenyl)-N′-(2-mercapto-carboxyethanyl)thiourea [Compound 10]”, the IC50 was 6.8 ± 1.1 µM in test [1], 1500 ± 300 µM against tyrosinase and 45.8 ± 0.4 µM in test [2].

Turning to “N-(4-cyanophenyl)-N′-(2-mercapto-carboxyethanyl)thiourea [Compound 7]”, the IC50 in test [1] came to 46.8 ± 1.3 µM; against tyrosinase it was 35000 ± 1100 µM; in test [2] it was 84.4 ± 0.9 µM.

For “N-(5-chloro-2-methoxyphenyl)-N′-(2-mercapto-carboxyethanyl)thiourea [Compound 8]”, the results for the IC50 (in test [1]; against tyrosinase; in test [2]) were 9.5 ± 1.2 µM, 4000 ± 600 µM and 61.2 ± 0.5 µM, respectively.

On to “N-(4-bromophenyl)-N′-(2-mercapto-carboxyethanyl)thiourea [Compound 2]”, for which the figures for the IC50 (in test [1]; against tyrosinase; in test [2]) were 36.4 ± 0.2 µM, 28800 ± 100 µM and 75.1 ± 0.5 µM, respectively.

As to “N-(2,5-dichlorophenyl)-N′-(2-mercapto-carboxyethanyl)thiourea [Compound 15]”, the IC50 in test [1] is 44.6 ± 0.3 µM; at tyrosinase it was 22200 ± 900 µM; in test [2], 82.9 ± 0.4 µM.

For the compound “N-(4-(trifluoromethyl)phenyl)-N′-(2-mercapto-carboxyethanyl)thiourea [Compound 5]”, the IC50 amounted to 16.7 ± 0.2 µM in test [1], 10400 ± 200 µM against tyrosinase and 64.3 ± 0.7 µM in test [2].

Turning to “N-(4-fluorophenyl)-N′-(2-mercapto-carboxyethanyl)thiourea [Compound 4]”, the results for the IC50 (in test [1]; on tyrosinase; in test [2]) were 28.5 ± 0.5 µM, 12500 ± 300 µM and 70.4 ± 0.9 µM, respectively.

Turning to “N-(4-chlorophenyl)-N′-(2-mercapto-carboxyethanyl)thiourea [Compound 3]”, the IC50 came out at 31.7 ± 0.8 µM in test [1], 16100 ± 900 µM at tyrosinase and 72.8 ± 1.1 µM in test [2].

As to “N-(3,5-dimethoxyphenyl)-N′-(2-mercapto-carboxyethanyl)thiourea [Compound 13]”, the values for the IC50 (in test [1]; at tyrosinase; in test [2]) were 5.7 ± 1 µM, 2200 ± 400 µM and 37.2 ± 0.1 µM, respectively.

Take “N-(4-(diethylamino)phenyl)-N′-(2-mercapto-carboxyethanyl)thiourea [Compound 17]”: the IC50 in test [1] is 3.9 ± 0.6 µM; at tyrosinase, 5300 ± 800 µM; in test [2], 18.1 ± 0.5 µM.

As for “N-(3,4-dimethoxyphenyl)-N′-(2-mercapto-carboxyethanyl)thiourea [Compound 12]”, the values for the IC50 (in test [1]; on tyrosinase; in test [2]) were 7.8 ± 0.6 µM, 1600 ± 600 µM and 54 ± 1.3 µM, respectively.

Regarding “N-phenyl-N′-(2-mercapto-carboxyethanyl)thiourea [Compound 1]”, the IC50 is 23.4 ± 1.2 µM in test [1], 9700 ± 1000 µM against tyrosinase and 66 ± 0.1 µM in test [2].

In the case of “N-(4-(dimethylamino)phenyl)-N′-(2-mercapto-carboxyethanyl)thiourea [Compound 16]”, the IC50 in test [1] was found to be 4.2 ± 0.6 µM; against tyrosinase, 4700 ± 300 µM; in test [2] it was 24.6 ± 0.7 µM.

Take “N-(2,5-dimethoxyphenyl)-N′-(2-mercapto-carboxyethanyl)thiourea [Compound 11]”: the IC50 in test [1] was 7.2 ± 0.5 µM; on tyrosinase it was 2900 ± 200 µM; in test [2] it was 49.7 ± 0.9 µM.
